From paper PMC9760430, “A stapled chromogranin A-derived peptide homes in on tumors that express αvβ6 or αvβ8 integrins” (International Journal of Biological Sciences, 2023)

Legend:
[1] = test system: human umbilical vein endothelial cells (HUVECs) (αvβ6- and αvβ8-); test: binding of peptide-IRDye conjugates to cultured HUVECs; format: cell-based; details: 0.32-200 nM, 1 h, 37 °C; bound NIR fluorescence
Experimental: To assess the binding of peptide-IRDye conjugates to cells various amounts of conjugates (range 0.32-200 nM) were added to cultured cells and left to incubate for 1 h at 37 °C. After three washings, the cells were fixed and analyzed by scanning the plate with the Odyssey CLx.
A control conjugate with a cysteine in place of the peptide was also prepared in parallel. The identity of the purified products, called 5a-IRDye, 2a-IRDye, and Cys-IRDye, was confirmed by mass spectrometry analysis (Table S1). In addition, the purity and identity of 5a-IRDye was monitored by liquid chromatography–mass spectrometry (LC-MS). […]
that the product consist of a single peak at 230 and 735 nm with the expected molecular weight (purity >95%) (Figure S3A).
The simplified molecular-input line-entry system (SMILES) of 5a-, 2a-, Cys- and 5a-Scr- […]
The concentration of each conjugate was quantified by spectrophotometric analysis at 774 nm (molar absorption coefficient, 240,000 M-1, cm-1) (Figure S3B). […]
The binding of peptide-IRDye conjugates to BxPC-3, 5M7101, and HUVECs cells was analyzed as follows. […]
chloride and 1% BSA (binding buffer) for 5 min. […] Binding of conjugates to cells was quantified by scanning the plate (filled with PBS, 100 µl/well) with the Odyssey CLx (LI-COR) using the above settings, except that the scan focus offset and scan intensity were set to 4 and 8.5, respectively. […]

[2] = test system: BxPC-3 cells (αvβ6+/αvβ8-); test: binding of peptide-IRDye conjugates to cultured BxPC-3 cells; format: cell-based, human; details: 0.32-200 nM, 1 h, 37 °C; bound NIR fluorescence

Question: Which results are given for `CC1(C)C(/C=C/C2=C(Oc3ccc(S(=O)(=O)O)cc3)C(=C\C=C3/N(CCCCCC(=O)NCCN4C(=O)CC(SC[C@H](N)C(=O)O)C4=O)c4ccc(S(=O)(=O)O)cc4C3(C)C)/CCC2)=[N+](CCCCS(=O)(=O)O)c2ccc(S(=O)(=O)[O-])cc21` (some centres unmarked) [Cys-IRDye]?
Answer: binding of conjugate to HUVECs [1]: little or no binding; binding of conjugate to BxPC-3 cells [2]: little or no binding
